The source made the active and inactive calls.
Legend:
UMP-CMP kinase = target: T1, UMP-CMP kinase (Homo sapiens, UniProt P30085)
T1 sequence (P30085 whole entry): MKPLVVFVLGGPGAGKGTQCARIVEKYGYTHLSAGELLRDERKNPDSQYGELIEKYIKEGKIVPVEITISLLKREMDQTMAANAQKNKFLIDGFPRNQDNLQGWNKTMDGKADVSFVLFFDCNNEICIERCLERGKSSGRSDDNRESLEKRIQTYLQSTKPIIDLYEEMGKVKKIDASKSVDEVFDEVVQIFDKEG

[1] = target: Protein kinase C theta type (Homo sapiens, UniProt Q04759)
[2] = target: Dual specificity protein kinase CLK2 (Homo sapiens, UniProt P49760)
[3] = target: Choline-phosphate cytidylyltransferase A (Homo sapiens, UniProt P49585)
Chain of Choline-phosphate cytidylyltransferase A (P49585 whole entry): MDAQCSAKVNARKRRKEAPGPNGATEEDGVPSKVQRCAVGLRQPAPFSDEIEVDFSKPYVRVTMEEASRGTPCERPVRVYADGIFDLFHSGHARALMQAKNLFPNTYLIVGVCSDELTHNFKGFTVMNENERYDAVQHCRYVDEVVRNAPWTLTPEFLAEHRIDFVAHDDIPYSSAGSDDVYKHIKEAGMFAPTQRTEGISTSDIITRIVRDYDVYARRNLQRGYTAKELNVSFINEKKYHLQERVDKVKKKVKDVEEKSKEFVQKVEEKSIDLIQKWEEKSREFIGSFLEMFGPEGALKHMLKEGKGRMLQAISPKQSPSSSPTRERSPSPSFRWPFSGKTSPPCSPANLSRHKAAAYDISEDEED

[4] = target: Guanine nucleotide-binding protein G(i) subunit alpha-2 (Homo sapiens, UniProt P04899)
Ephrin type-A receptor 7 = Ephrin type-A receptor 7 (Homo sapiens, UniProt Q15375)
[5] = target: Serine/threonine-protein kinase PLK1 (Homo sapiens, UniProt P53350)
Chain of Serine/threonine-protein kinase PLK1 (P53350 whole entry): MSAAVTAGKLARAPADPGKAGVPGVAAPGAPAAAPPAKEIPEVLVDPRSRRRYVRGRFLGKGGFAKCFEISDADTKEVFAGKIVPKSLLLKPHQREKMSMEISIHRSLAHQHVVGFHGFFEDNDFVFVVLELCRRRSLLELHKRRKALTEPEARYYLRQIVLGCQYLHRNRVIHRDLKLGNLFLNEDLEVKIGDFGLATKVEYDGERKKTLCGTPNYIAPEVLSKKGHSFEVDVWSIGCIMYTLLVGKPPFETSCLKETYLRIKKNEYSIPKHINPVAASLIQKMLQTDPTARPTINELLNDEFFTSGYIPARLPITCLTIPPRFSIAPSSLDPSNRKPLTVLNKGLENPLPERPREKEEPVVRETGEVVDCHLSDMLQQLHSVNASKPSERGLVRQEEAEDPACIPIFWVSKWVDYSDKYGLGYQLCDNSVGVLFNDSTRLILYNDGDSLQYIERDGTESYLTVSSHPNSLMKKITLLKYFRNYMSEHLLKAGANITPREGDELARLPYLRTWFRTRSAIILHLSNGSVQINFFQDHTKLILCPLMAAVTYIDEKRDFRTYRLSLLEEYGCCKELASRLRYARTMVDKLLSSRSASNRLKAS

[6] = target: Cell division cycle 7-related protein kinase (Homo sapiens, UniProt O00311)
[7] = target: T2, Long-chain-fatty-acid--CoA ligase 5 (Homo sapiens, UniProt Q9ULC5)
T2 sequence (Q9ULC5 whole entry): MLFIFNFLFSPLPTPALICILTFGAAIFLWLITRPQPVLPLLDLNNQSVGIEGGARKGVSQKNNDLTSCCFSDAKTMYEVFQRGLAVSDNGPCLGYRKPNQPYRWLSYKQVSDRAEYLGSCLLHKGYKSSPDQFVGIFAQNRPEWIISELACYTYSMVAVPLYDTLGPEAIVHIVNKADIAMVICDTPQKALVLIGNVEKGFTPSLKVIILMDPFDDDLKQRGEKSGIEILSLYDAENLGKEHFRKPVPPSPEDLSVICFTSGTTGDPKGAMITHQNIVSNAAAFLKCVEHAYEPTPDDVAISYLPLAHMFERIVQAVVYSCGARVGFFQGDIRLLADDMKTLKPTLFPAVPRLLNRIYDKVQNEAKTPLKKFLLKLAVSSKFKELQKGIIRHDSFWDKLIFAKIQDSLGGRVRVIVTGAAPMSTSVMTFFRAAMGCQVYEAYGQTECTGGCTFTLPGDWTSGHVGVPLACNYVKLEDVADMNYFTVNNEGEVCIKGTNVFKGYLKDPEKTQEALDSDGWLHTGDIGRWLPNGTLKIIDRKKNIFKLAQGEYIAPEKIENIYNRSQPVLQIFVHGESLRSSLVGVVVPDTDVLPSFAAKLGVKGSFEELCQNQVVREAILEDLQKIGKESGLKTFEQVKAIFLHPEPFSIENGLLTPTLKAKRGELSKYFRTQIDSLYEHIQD

[8] = target: Mitogen-activated protein kinase 14 (Homo sapiens, UniProt Q16539)
Chain of Mitogen-activated protein kinase 14 (Q16539 whole entry): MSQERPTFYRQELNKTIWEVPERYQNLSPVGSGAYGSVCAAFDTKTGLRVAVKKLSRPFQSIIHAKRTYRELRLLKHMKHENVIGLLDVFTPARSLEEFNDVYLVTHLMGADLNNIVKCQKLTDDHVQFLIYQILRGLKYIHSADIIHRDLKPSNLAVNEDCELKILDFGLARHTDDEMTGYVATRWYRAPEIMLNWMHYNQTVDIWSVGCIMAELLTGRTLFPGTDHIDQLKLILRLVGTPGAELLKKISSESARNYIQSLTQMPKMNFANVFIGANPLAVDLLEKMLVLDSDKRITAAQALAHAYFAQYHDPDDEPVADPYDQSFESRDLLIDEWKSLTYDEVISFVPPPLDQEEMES

[9] = target: Phosphatidylethanolamine-binding protein 1 (Homo sapiens, UniProt P30086)
Chain of Phosphatidylethanolamine-binding protein 1 (P30086 whole entry): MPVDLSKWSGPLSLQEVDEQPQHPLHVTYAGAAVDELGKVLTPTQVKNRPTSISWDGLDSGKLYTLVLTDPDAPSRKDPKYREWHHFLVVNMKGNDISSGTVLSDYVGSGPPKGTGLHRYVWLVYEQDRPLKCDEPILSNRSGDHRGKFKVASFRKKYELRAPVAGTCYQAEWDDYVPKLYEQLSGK

[10] = target: Dual specificity protein kinase CLK3 (Homo sapiens, UniProt P49761); type: subcellular, K-562, COLO 205, SK-N-BE(2) and MV-4-11, Cell lysate; conditions: read-out: Kd apparent
Chain of Dual specificity protein kinase CLK3 (P49761 whole entry): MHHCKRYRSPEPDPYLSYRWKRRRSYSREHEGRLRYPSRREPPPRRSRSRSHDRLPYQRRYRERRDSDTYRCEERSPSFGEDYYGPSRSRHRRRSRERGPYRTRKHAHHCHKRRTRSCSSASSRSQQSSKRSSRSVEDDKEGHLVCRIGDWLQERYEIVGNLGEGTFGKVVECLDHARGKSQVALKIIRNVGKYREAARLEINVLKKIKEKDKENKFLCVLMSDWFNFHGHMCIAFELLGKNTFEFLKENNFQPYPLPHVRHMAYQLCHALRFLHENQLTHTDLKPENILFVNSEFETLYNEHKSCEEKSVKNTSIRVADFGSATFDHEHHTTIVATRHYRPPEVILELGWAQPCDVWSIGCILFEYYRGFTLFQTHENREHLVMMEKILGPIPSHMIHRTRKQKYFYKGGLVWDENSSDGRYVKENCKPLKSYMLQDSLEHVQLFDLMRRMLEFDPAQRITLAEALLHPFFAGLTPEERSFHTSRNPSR

[11] = target: T3, Adenine phosphoribosyltransferase (Homo sapiens, UniProt P07741)
T3 sequence (P07741 whole entry): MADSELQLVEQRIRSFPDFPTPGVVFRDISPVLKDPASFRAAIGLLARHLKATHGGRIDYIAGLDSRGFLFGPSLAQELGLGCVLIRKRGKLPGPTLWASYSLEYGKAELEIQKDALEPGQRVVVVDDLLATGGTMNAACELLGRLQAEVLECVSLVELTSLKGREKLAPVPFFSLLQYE

[12] = target: G protein-coupled receptor kinase 6 (Homo sapiens, UniProt P43250)
Chain of G protein-coupled receptor kinase 6 (P43250 whole entry): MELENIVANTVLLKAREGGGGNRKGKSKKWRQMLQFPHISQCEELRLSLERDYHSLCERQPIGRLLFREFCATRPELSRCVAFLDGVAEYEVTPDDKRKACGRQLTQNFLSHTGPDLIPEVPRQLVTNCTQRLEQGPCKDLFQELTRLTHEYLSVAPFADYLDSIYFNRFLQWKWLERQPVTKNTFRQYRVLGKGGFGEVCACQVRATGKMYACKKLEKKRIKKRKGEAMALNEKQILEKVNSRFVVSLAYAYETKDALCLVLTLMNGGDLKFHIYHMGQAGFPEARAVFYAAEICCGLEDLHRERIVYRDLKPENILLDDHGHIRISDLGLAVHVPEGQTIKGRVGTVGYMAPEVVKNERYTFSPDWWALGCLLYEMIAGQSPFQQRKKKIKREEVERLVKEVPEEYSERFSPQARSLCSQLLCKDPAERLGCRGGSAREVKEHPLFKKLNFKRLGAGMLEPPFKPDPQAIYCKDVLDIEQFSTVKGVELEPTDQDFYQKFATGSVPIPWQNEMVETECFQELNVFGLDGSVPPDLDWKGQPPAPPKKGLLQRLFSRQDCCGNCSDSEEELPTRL

[13] = target: T4, Dual specificity protein kinase TTK (Homo sapiens, UniProt P33981)
T4 sequence (P33981 whole entry): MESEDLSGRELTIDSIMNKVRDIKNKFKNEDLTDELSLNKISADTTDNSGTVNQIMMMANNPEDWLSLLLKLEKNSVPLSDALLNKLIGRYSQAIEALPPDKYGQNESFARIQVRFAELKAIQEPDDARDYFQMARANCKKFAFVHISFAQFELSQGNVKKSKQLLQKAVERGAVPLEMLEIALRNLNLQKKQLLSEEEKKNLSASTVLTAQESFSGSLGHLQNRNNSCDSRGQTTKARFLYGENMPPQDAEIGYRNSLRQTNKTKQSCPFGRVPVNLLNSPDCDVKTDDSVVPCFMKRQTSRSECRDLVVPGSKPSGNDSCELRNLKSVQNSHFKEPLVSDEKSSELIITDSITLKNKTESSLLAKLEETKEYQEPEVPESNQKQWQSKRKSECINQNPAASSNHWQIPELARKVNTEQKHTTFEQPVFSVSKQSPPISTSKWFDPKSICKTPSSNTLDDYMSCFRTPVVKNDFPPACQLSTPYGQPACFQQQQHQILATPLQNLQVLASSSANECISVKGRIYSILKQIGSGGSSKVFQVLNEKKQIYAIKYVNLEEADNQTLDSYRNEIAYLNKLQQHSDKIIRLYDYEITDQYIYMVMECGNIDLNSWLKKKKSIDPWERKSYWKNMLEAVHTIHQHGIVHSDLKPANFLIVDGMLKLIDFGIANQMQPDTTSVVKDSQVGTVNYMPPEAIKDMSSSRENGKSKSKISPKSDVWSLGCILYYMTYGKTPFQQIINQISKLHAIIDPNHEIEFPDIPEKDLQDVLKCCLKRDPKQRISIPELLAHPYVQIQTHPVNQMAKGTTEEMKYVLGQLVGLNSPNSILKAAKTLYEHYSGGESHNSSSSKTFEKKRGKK

[14] = target: Epidermal growth factor receptor (Homo sapiens, UniProt P00533)
Chain of Epidermal growth factor receptor (P00533 whole entry): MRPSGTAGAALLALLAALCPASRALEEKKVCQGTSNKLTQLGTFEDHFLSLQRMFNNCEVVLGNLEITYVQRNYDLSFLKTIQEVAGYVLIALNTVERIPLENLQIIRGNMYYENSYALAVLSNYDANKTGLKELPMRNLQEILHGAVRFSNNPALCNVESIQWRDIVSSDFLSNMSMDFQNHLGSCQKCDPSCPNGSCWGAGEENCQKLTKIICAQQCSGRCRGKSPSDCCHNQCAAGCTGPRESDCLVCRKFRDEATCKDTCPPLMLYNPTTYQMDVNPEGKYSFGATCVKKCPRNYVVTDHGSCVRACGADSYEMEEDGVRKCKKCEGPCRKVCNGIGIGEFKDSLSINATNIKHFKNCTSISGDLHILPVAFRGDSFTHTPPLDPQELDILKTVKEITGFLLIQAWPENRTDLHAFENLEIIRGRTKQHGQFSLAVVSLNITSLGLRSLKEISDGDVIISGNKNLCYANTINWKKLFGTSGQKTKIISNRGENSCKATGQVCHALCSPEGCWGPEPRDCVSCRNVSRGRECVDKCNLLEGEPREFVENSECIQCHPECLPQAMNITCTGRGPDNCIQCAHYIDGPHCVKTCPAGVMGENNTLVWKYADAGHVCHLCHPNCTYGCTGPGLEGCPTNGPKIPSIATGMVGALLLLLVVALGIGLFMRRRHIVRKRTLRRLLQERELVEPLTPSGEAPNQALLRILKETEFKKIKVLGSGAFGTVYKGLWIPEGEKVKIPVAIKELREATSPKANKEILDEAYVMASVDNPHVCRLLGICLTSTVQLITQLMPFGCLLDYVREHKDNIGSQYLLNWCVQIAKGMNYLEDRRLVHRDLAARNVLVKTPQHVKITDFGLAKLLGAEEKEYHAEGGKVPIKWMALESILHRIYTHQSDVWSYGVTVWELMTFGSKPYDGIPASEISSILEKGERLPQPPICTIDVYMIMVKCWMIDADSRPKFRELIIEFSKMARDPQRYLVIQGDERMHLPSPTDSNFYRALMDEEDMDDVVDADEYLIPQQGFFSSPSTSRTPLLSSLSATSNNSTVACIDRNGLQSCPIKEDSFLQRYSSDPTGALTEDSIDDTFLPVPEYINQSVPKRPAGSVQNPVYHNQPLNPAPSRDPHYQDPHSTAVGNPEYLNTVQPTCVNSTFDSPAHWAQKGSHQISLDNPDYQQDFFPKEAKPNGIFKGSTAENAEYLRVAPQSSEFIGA

Obg-like ATPase 1 = Obg-like ATPase 1 (Homo sapiens, UniProt Q9NTK5)
Chain of Obg-like ATPase 1 (Q9NTK5 whole entry, looked up): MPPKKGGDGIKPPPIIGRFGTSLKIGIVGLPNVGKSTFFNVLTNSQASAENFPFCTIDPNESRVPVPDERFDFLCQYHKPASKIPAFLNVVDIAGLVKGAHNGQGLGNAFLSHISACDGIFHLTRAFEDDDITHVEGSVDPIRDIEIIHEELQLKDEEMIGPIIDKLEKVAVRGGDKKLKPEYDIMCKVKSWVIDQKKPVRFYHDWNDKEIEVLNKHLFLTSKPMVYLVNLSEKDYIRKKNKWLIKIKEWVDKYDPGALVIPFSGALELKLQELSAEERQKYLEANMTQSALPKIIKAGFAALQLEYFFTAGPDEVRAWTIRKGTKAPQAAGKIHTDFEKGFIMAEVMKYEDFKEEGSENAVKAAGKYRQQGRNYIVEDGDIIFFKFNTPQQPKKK

[15] = target: Proto-oncogene tyrosine-protein kinase receptor Ret (Homo sapiens, UniProt P07949)

Measured: Kd
Further: in the data inactive means no Kd found up to 30 µM.

Chain of Protein kinase C theta type (Q04759 whole entry): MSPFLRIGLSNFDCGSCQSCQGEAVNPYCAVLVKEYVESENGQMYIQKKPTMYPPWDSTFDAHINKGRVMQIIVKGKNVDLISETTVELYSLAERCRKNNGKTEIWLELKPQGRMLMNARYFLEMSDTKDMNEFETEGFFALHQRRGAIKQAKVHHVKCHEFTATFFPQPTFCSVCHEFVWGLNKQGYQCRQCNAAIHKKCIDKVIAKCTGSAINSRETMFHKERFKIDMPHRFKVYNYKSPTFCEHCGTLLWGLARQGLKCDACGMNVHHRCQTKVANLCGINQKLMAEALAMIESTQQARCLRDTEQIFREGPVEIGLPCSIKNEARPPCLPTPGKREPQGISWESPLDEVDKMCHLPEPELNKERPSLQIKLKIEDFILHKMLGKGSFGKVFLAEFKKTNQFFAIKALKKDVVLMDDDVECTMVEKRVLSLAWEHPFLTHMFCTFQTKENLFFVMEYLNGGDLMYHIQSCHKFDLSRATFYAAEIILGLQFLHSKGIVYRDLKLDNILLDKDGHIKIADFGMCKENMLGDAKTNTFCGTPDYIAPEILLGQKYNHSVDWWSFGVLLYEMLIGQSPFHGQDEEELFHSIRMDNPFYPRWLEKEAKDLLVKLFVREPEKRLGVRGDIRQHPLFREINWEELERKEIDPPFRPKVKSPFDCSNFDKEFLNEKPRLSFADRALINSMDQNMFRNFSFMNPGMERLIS

CO[C@H]1C[C@@H]2CC[C@@H](C)[C@@](O)(O2)C(=O)C(=O)N2CCCC[C@H]2C(=O)O[C@H]([C@H](C)C[C@@H]2CC[C@@H](OCCO)[C@H](OC)C2)CC(=O)[C@H](C)/C=C(\C)[C@@H](O)[C@@H](OC)C(=O)[C@H](C)C[C@H](C)/C=C/C=C/C=C/1C [EVEROLIMUS]
inactive: UMP-CMP kinase > 30 µM | [1] > 30 µM | [2] > 30 µM | [3] > 30 µM | [4] > 30 µM | Ephrin type-A receptor 7 > 30 µM | [5] > 30 µM | [6] > 30 µM | [7] > 30 µM | [8] > 30 µM | [9] > 30 µM | [10] > 30 µM | [11] > 30 µM | [12] > 30 µM | [13] > 30 µM | [14] > 30 µM | Obg-like ATPase 1 > 30 µM | [15] > 30 µM

Reference: ChEMBL document CHEMBL3991601, “The target landscape of clinical kinase drugs” (Science, 2017)
